We go through 19 molecules from ChEMBL document CHEMBL1135144, “N-(pyrimidin-4-yl) and N-(pyridin-2-yl) phenylalanine derivatives as VLA-4 integrin antagonists” (Bioorg Med Chem Lett, 2002).

The data set is described as follows: Compound was evaluated for rate of clearance in IPRL (Isolated Perfused Rat Liver). In kind it is ADME.

SMILES strings stand for the structures.

Take `CC(C)CS(=O)(=O)c1nc(N[C@@H](Cc2ccc(NC(=O)c3c(Cl)cncc3Cl)cc2)C(=O)O)cc(C(=O)O)n1`: the k el was 0.00164 s⁻¹.
In the case of `CCCS(=O)(=O)c1nc(N[C@@H](Cc2ccc(NC(=O)c3c(Cl)cncc3Cl)cc2)C(=O)O)cc(OC)n1`, the k el is 0.00156 s⁻¹.
Turning to `O=C(Nc1ccc(C[C@H](Nc2cc(Oc3ccccc3)ncn2)C(=O)O)cc1)c1c(Cl)cncc1Cl`, the k el is 0.000861 s⁻¹.
Turning to `CSc1ncc(C(=O)O)c(N[C@@H](Cc2ccc(NC(=O)c3c(Cl)cncc3Cl)cc2)C(=O)O)n1`, the k el was 0.000361 s⁻¹.
For `CCCS(=O)(=O)c1nc(N[C@@H](Cc2ccc(NC(=O)c3c(Cl)cncc3Cl)cc2)C(=O)O)cc(C(=O)O)n1` the value was 0.00025 s⁻¹; for `O=C(Nc1ccc(CC(Nc2ccc(Cl)cn2)C(=O)O)cc1)c1c(Cl)cncc1Cl` (centres undefined), 5.56e-05 s⁻¹; for `CCCCCCS(=O)(=O)c1nc(N[C@@H](Cc2ccc(NC(=O)c3c(Cl)cncc3Cl)cc2)C(=O)O)cc(C(=O)O)n1`, 0.000861 s⁻¹.
For `CCC[S+]([O-])c1cc(NC(Cc2ccc(NC(=O)c3c(Cl)cncc3Cl)cc2)C(=O)O)ncc1Cl` (centres undefined) the value was 0.00128 s⁻¹; for `O=C(Nc1ccc(C[C@H](Nc2cc(S(=O)(=O)Cc3ccccc3)ncn2)C(=O)O)cc1)c1c(Cl)cncc1Cl`, 0.00144 s⁻¹; for `CCCS(=O)(=O)c1cc(N[C@@H](Cc2ccc(NC(=O)c3c(Cl)cncc3Cl)cc2)C(=O)O)ncn1`, 0.00122 s⁻¹.
For `CS(=O)(=O)c1cc(N[C@@H](Cc2ccc(NC(=O)c3c(Cl)cncc3Cl)cc2)C(=O)O)ncn1` the value was 0.00111 s⁻¹; for `CCC[S+]([O-])c1cc(N[C@@H](Cc2ccc(NC(=O)c3c(Cl)cncc3Cl)cc2)C(=O)O)ncn1` (some centres undefined), 0.00119 s⁻¹; for `CCCS(=O)(=O)c1cc(NC(Cc2ccc(NC(=O)c3c(Cl)cncc3Cl)cc2)C(=O)O)ncc1Cl` (centres undefined), 0.000583 s⁻¹.
In the case of `CCCS(=O)(=O)c1ccnc(NC(Cc2ccc(NC(=O)c3c(Cl)cncc3Cl)cc2)C(=O)O)c1` (centres undefined), the k el is 0.00144 s⁻¹.
`CCCS(=O)(=O)c1cc(NC(Cc2ccc(NC(=O)c3c(Cl)cncc3Cl)cc2)C(=O)O)ncc1C(=O)O` (centres undefined) had a k el of 5.56e-05 s⁻¹.
Regarding `COc1cc(N[C@@H](Cc2ccc(NC(=O)c3c(Cl)cncc3Cl)cc2)C(=O)O)nc(S(C)(=O)=O)n1`, the k el was 0.00136 s⁻¹.
`CCCS(=O)(=O)c1nc(C)cc(N[C@@H](Cc2ccc(NC(=O)c3c(Cl)cncc3Cl)cc2)C(=O)O)n1` showed a k el of 0.00181 s⁻¹.
The molecule `O=C(Nc1ccc(C[C@H](Nc2cc(Cc3ccccc3)ncn2)C(=O)O)cc1)c1c(Cl)cncc1Cl` had a k el of 0.00178 s⁻¹.
For `CCCS(=O)(=O)c1nccc(N[C@@H](Cc2ccc(NC(=O)c3c(Cl)cncc3Cl)cc2)C(=O)O)n1` the value was 0.00122 s⁻¹.
